From US20160168140A1, “HETEROCYCLIC COMPOUNDS AS ANTIBIOTIC POTENTIATORS” (priority 2014, published 2016)

Tested on: Acinetobacter baumannii (Ab23)
Experiment: MIC shift assay of antibiotics (broth microdilution)
Type: cell-based
Conditions: compound concentration 2 μM; fold shift of colistin MIC; nc = no changeover or no shift
Outline: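 Following a modified Wiegand broth microdilution protocol, colistin serial dilutions with or without test compound were set up in round-bottom 96-well plates and inoculated with A. baumannii cells to a starting OD600 of 0.005. Plates were shaken at 37° C. for 18 to 20 h and read at OD600. The fold shift was calculated from colistin MIC alone versus colistin MIC with test compound, with growth and medium-only blank controls.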

Compound	colistin MIC shift, Ab23 at (compd concentration) [x]
FC(F)(F)c1ccc2c(-c3ccc4ccccc4c3)n[nH]c2c1 [compound 540]	4

Same assay, conditions: compound concentration 4 μM; fold shift of colistin MIC; nc = no changeover or no shift

Compound	colistin MIC shift, Ab23 at (compd concentration)
Cc1cccc2c(N(C)CCCN(C)C)nc(-c3cc(Br)cc(C(F)(F)F)c3)nc12 [compound 502]	32x
Cc1cc(-c2nc(NCCCN(C)C)c3cccc(C)c3n2)cc(C(F)(F)F)c1 [compound 507]	8x
Cc1cccc2c(NCCCN(C)C)nc(-c3cc(F)cc(C(F)(F)F)c3)nc12 [compound 508]	8x
Cc1cccc2c(NCCCN(C)C)nc(-c3cc(-c4ccccc4C(F)(F)F)cc(C(F)(F)F)c3)nc12 [compound 509]	64x
Cc1cccc2c(NCCCN(C)C)nc(-c3cc(-c4cccnc4)cc(C(F)(F)F)c3)nc12 [compound 510]	16x
Cc1c(Cl)ccc2c(NCCCN(C)C)nc(-c3cc(Br)cc(C(F)(F)F)c3)nc12 [compound 511]	64x
Cc1c(Br)ccc2c(NCCCN(C)C)nc(-c3cc(Br)cc(C(F)(F)F)c3)nc12 [compound 512]	64x
Cc1cccc2c(NCCCN(C)C)nc(-c3cc(-c4ccccc4Cl)cc(C(F)(F)F)c3)nc12 [compound 513]	32x
CN(C)CCCNc1nc(-c2cc(-c3ccccc3)cc(C(F)(F)F)c2)nc2c(C(F)(F)F)cccc12 [compound 514]	16x
CN(C)CCCNc1nc(-c2cc(Br)cc(C(F)(F)F)c2)nc2ccc(Br)cc12 [compound 515]	8x
Clc1ccc2c(-c3cccc(-c4ccccc4)c3)n[nH]c2c1 [compound 526]	1x
FC(F)(F)c1ccc2c(-c3ccc(Cl)c(Cl)c3)n[nH]c2c1 [compound 541]	32x
FC(F)(F)c1ccc2c(-c3cccc(Cl)c3Cl)n[nH]c2c1 [compound 543]	1x
Fc1cc(C(F)(F)F)ccc1-c1n[nH]c2cc(C(F)(F)F)ccc12 [compound 544]	8x
CN(C)CCCNc1nc(-c2cn(Cc3ccccc3)c3c(Cl)cccc23)nc2c(F)cccc12 [compound 565]	2-4x
CN(C)CCCNc1nc(-c2cn(Cc3ccccc3)c3c(Cl)cccc23)nc2c(Cl)cccc12 [compound 567]	16x
CN(C)CCCNc1nc(-c2cn(Cc3ccccc3)c3c(Cl)cccc23)nc2c(Br)cccc12 [compound 569]	8x
CN(C)CCCNc1nc(-c2cn(Cc3ccccc3)c3c(Cl)cccc23)nc2c(-c3ccncc3)cccc12 [compound 571]	4x
Cc1ccc(Cn2cc(-c3nc(NCCCN(C)C)c4cccc(C)c4n3)c3cccc(Cl)c32)cc1 [compound 573]	16x
Cc1cccc(Cn2cc(-c3nc(NCCCN(C)C)c4cccc(C)c4n3)c3cccc(Cl)c32)c1 [compound 575]	16x
Cc1cccc2c(NCCCN(C)C)nc(-c3cn(Cc4ccc(Cl)cc4)c4c(Cl)cccc34)nc12 [compound 577]	16x
Cc1cccc2c(NCCCN(C)C)nc(-c3cn(Cc4cccc(Cl)c4)c4c(Cl)cccc34)nc12 [compound 579]	16x
CNCCCNc1nc(-c2cn(Cc3ccccc3)c3c(Cl)cccc23)nc2c(C)cccc12 [compound 580]	8x
Cc1cccc2c(N(C)CCCN(C)C)nc(-c3cn(Cc4ccc(Cl)cc4)c4c(Cl)cccc34)nc12 [compound 582]	8x
CNCCCNc1nc(-c2cn(Cc3ccc(Cl)cc3)c3c(Cl)cccc23)nc2c(C)cccc12 [compound 583]	4x
CN(C)CCCNc1nc(-c2cn(Cc3ccccc3)c3c(Cl)cccc23)nc2cc(Cl)ccc12 [compound 585]	8x
Cc1cccc2c(NCCCN(C)C)nc(-c3cn(Cc4ccccc4)c4cc(Cl)ccc34)nc12 [compound 586]	16x
CN(C)CCCNc1nc(-c2csc3ccc(Cl)cc23)nc2c(Cl)cccc12 [compound 592]	32x
(S)-2-amino-1-(5-chloro-3-(3,4-dichlorophenyl)-1H-indol-1-yl)butan-1-one methanesulfonate salt [compound 460]	32x
E-1-(5-bromo-3-(3,4-dichlorostyryl)-1H-indol-1-yl)-2-(dimethylamino)ethan-1-one [compound 457]	16x

Same assay, conditions: compound concentration 8 μM; fold shift of colistin MIC; nc = no changeover or no shift

Compound	colistin MIC shift, Ab23 at (compd concentration) [x]
COc1cc(-c2nc(NCCCN(C)C)c3cccc(C)c3n2)cc(C(F)(F)F)c1 [compound 504]	16

Same assay, conditions: compound concentration 10 μM; fold shift of colistin MIC; nc = no changeover or no shift

Compound	colistin MIC shift, Ab23 at (compd concentration) [x]
CN(C)CCCNc1nc(-c2cc(Br)cc(C(F)(F)F)c2)nc2c(F)cccc12 [compound 503]	4
Cc1ccc2nc(-c3cc(Br)cc(C(F)(F)F)c3)nc(NCCCN(C)C)c2c1 [compound 516]	16
FC(F)(F)c1cccc(-c2cccc(-c3n[nH]c4ccc(Cl)cc34)c2)c1 [compound 525]	1
FC(F)(F)c1ccc2c(-c3cccc(-c4ccc(Cl)c(Cl)c4)c3)n[nH]c2c1 [compound 527]	8
Fc1cc(-c2cccc(-c3n[nH]c4cc(C(F)(F)F)ccc34)c2)ccc1C(F)(F)F [compound 528]	8
FC(F)(F)c1cccc(-c2cccc(-c3n[nH]c4cc(C(F)(F)F)ccc34)c2)c1 [compound 529]	8
FC(F)(F)c1ccc2c(-c3cccc(-c4cc(Cl)cc(Cl)c4)c3)n[nH]c2c1 [compound 530]	4
Fc1cc(C(F)(F)F)ccc1-c1cccc(-c2n[nH]c3cc(C(F)(F)F)ccc23)c1 [compound 531]	4
Clc1ccc2[nH]nc(-c3cccc(-c4ccc(Cl)c(Cl)c4)c3)c2c1 [compound 532]	4
Clc1cccc(Cn2nc(-c3cccc(-c4ccccc4)c3)c3cc(Cl)ccc32)c1 [compound 533]	1
Fc1ccc2c(-c3cccc(Cl)c3)n[nH]c2c1 [compound 534]	1
Cc1cccc(-c2n[nH]c3cc(F)ccc23)c1 [compound 535]	1
FC(F)(F)c1cccc(-c2n[nH]c3cc(C(F)(F)F)ccc23)c1 [compound 536]	16
N#Cc1cccc(-c2n[nH]c3cc(F)ccc23)c1 [compound 538]	1
Fc1cc(-c2n[nH]c3ccc(Cl)cc23)ccc1C(F)(F)F [compound 539]	4
FC(F)(F)c1ccc2c(-c3ccc(Cl)c(Cl)c3)nn(Cc3ccc(Cl)cc3)c2c1 [compound 542]	1

Compound	colistin MIC shift, Ab23 at (compd concentration) [x]
FC(F)(F)c1ccc2c(-c3ccc(Cl)c(Cl)c3)nn(Cc3cccc(Cl)c3)c2c1 [compound 545]	1
Fc1cc(-c2n[nH]c3cc(C(F)(F)F)ccc23)ccc1C(F)(F)F [compound 546]	1
FC(F)(F)c1ccc2c(-c3ccccc3C(F)(F)F)n[nH]c2c1 [compound 547]	1
FC(F)(F)c1cc(Br)cc(-c2n[nH]c3cc(C(F)(F)F)ccc23)c1 [compound 548]	16
Fc1ccc(-c2n[nH]c3cc(C(F)(F)F)ccc23)cc1C(F)(F)F [compound 549]	32
Fc1cc(-c2n[nH]c3cc(C(F)(F)F)ccc23)cc(C(F)(F)F)c1 [compound 550]	64
FC(F)(F)c1cc(Cl)cc(-c2n[nH]c3cc(C(F)(F)F)ccc23)c1 [compound 551]	32
COc1cc(-c2n[nH]c3cc(C(F)(F)F)ccc23)cc(C(F)(F)F)c1 [compound 552]	8
COC(=O)c1cc(-c2n[nH]c3cc(C(F)(F)F)ccc23)cc(C(F)(F)F)c1 [compound 553]	1
Nc1cc(-c2n[nH]c3cc(C(F)(F)F)ccc23)cc(C(F)(F)F)c1 [compound 554]	8
FC(F)(F)c1ccc2[nH]nc(-c3ccc(Cl)c(Cl)c3)c2c1 [compound 555]	32
O=C(c1ccc(Cl)c(Cl)c1)n1nc(-c2ccc(Cl)c(Cl)c2)c2ccc(C(F)(F)F)cc21 [compound 558]	1
Clc1ccc(-c2n[nH]c3cc(Br)ccc23)cc1Cl [compound 559]	8
CN(C)CCCNc1nc(-c2cn(Cc3ccccc3)c3c(Cl)cccc23)nc2ccccc12 [compound 563]	8
Cc1cccc2c(NCCCN(C)C)nc(-c3cn(Cc4ccccc4)c4ccc(Cl)cc34)nc12 [compound 587]	16
